Results published in US7153873B2, “Salts of bicyclic, N-acylated imidazo-3-amines and imidazo-5-amines” (Gruenenthal GmbH, priority 2000, dated 2006).

Each compound was assayed against T1, μ-opiate receptor (Rattus norvegicus, UniProt P33535) (assay: μ-Opiate receptor binding investigations on rat brain membrane homogenates with tritiated naloxone). Conditions: 10 μM compound; rat brain membrane homogenate (male Wistar rats); 1 nmol/l tritiated naloxone as radioactive ligand; read-out: μ-affinity % inhibition 10 μM.
T1 construct: homogenate of rat brain without cerebellum, pons and medulla oblongata of male Wistar rats; from tissue; host or cells: rat brain (without cerebellum, pons and medulla oblongata), male Wistar rats, membrane homogenate
Method: μ-Opiate Receptor Binding Investigations
Investigations to determine the affinity of the compounds of Formula I according to the invention for the μ-opiate receptor were carried out on brain membrane homogenates (homogenate of rat brain without cerebellum, pons and medulla oblongata of male Wistar rats).
For this purpose, the respective freshly prepared rat brain was homogenized in 50 mmol/l tris-HCl (pH 7.4) with ice cooling and was centrifuged for 10 minutes at 5,000 g and 4° C. After decanting and rejection of the supernatant, retrieval and homogenisation of the membrane sediment in 50 mmol/l tris-HCl (pH 7.4), the homogenate was then centrifuged for 20 minutes at 20,000 g and 4° C. This washing stage was repeated several times. The supernatant was then decanted and the membrane sediment homogenized in cold 50 mmol/l tris-HCl, 20% glycerol (w/v), 0.01% Bactitracin (w/v) (pH 7.4) and frozen in aliquots until testing. To test receptor binding, the aliquots were thawed and diluted 1:10 with the binding test buffer.
In the binding test, a 50 mmol/l tris-HCl, 5 mmol/l MgCl (pH 7.4) was used as buffer and 1 nmol/l tritiated naloxone as radioactive ligand.

T1 sequence (P33535 whole entry): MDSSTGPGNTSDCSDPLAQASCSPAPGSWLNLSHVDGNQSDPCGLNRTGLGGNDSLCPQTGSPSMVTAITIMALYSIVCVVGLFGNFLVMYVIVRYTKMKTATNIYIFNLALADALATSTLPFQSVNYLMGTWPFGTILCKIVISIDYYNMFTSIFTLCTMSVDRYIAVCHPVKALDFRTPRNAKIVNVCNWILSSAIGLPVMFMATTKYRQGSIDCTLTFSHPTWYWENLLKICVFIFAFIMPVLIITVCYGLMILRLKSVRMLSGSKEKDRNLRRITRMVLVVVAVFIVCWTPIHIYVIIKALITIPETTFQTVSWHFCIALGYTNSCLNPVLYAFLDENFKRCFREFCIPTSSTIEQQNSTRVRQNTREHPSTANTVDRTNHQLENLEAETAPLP

In order of rising inhibition at 10 µM:
1. CC(=O)[n+]1c(-c2ccccc2)c(NC2CCCCC2)n2cccnc21 [Example 6, 1-acetyl-3-cyclohexylamino-2-phenyl-imidazo[1,2-a]-pyrimidin-1-ium chloride]  53%
2. CC(=O)[n+]1c(-c2ccccc2)c(NC2CCCCC2)n2c3ccccc3ccc21 [Example 5, 3-acetyl-1-cyclohexylamino-2-phenyl-imidazo[1,2-a]-quinolin-3-ium chloride]  79%
3. CC(=O)[n+]1c(-c2ccccc2)c(NC(C)(C)C)n2ccsc21 [Example 4, 7-acetyl-5-tert-butylamino-6-phenyl-imidazo[2,1-b]-thiazol-7-ium chloride]  90%
4. CC(=O)[n+]1c(C)c(NC2CCCCC2)n2cccc(OCc3ccccc3)c21 [Example 7, 1-acetyl-8-benzyloxy-3-cyclohexylamino-2-methyl-imidazo[1,2-a]pyridin-1-ium chloride]  91%
5. CC(=O)[n+]1c(C)c(NC(C)(C)C)n2cccc(OCc3ccccc3)c21 [Example 8, 1-acetyl-8-benzyloxy-3-tert-butylamino-2-methyl-imidazo[1,2-a]pyridin-1-ium chloride]  98%
